Reference: US20150246908A1, “KLF5 MODULATORS” (The Scripps Research Institute, priority 2012, published 2015)
Values after ≈ are worked out from the molar mass of the structure shown. “Also recorded” adds a separate entry of the source. Where two headings read alike, the source gives them in different places.

Assays:
human KLF5 promoter = test: KLF5 promoter luciferase assay in DLD-1/pGL4.18KLF5p cell line; format: cell-based; conditions: measuring luciferase activity
KLF5 protein = KLF5 protein levels by Western blot in colon cancer cell lines; format: cell-based
Text: The chemical structure of this compound is described using Formula (I) in which R^1=(E)-2-(3-chlorophenyl)ethenyl, R^2═H, R^3=4-tetrahydro-2H-thiopyran 1,1-dioxide, R^4=Me, X═NH, Y=absent).

DLD-1 cell line = test: DLD-1 cell viability; format: cell-based; conditions: for EC50: cell viability, footnote calls it IC50 cell viability
HT29 (colon) = test: Tumor cell line potency, HT29; format: cell-based
SW-620 (colon) = test: Tumor cell line potency, SW-620; format: cell-based
HCT-116 (colon) = test: Tumor cell line potency, HCT-116; format: cell-based
[1] = test system: colon cancer cell line KM12; test: NCI60 cytotoxicity, KM12; format: cell-based; conditions: KM12, high KLF5 mRNA level
Text: (§1) Moreover, cytotoxicity in general trends with KLF5 levels in the tumor types. […] Only the colon cancer cell line KM12, the ovarian cancer line IGROV1, and the non-small cell lung cancer line NCI-H322M are the NCI60 cell lines high with respect to KLF5 mRNA levels that are ML264-insensitive.

[2] = test system: ovarian cancer line IGROV1; test: NCI60 cytotoxicity, IGROV1; format: cell-based; conditions: IGROV1, high KLF5 mRNA level
Text: as §1

[3] = test system: non-small cell lung cancer line NCI-H322M; test: NCI60 cytotoxicity, NCI-H322M; format: cell-based; conditions: high KLF5 mRNA level
Text: as §1

47 kinases = test: Off-target activity vs. 47 kinases; format: biochemical
[4] = test system: 67 protein targets of therapeutic and/or toxicological interest (GPCRs, ion channels, enzymes, etc.); test: Off-target activity vs. 67 protein targets
[5] = Solubility measured at Scripps; format: physicochemical; conditions: aqueous buffer
Stability in PBS = format: physicochemical; conditions: read-out: Stability (t1/2) in PBS
[6] = Michael acceptor test, incubation with GSH, LCMS; format: physicochemical; conditions: by LCMS after incubation with 100 μM GSH
[7] = Homo sapiens, DLD-1, DlD-1 4.9 cell line

SMILES	IC50 (human KLF5 promoter; [7]) [µM]	other results
CN(C(=O)CNS(=O)(=O)c1cccc2ccccc12)C1CCS(=O)(=O)CC1 [Compound 35]	> 100	
CN(C(=O)CNC(=O)c1ccc2ncsc2c1)C1CCS(=O)(=O)CC1 [Compound 47]	> 100	
CN(C(=O)CNC(=O)c1cc2ccccc2o1)C1CCS(=O)(=O)CC1 [Compound 38]	> 100	
CN(C(=O)CNC(=O)c1ccsc1)C1CCS(=O)(=O)CC1 [Compound 49]	> 100	
O=C(/C=C/c1cccc(Cl)c1)NCCC(=O)NC1CCS(=O)(=O)C1 (stereo not shown) [Compound 28]	> 100	
CN(C(=O)CNC(=O)/C=C/c1cccc([N+](=O)[O-])c1)C1CCS(=O)(=O)C1 (stereo not shown) [CID46931037]		effect on KLF5 protein levels (KLF5 protein): lesser effects on KLF5 expression than ML264
CN(C(=O)CNC(=O)c1cnc2ccc(Cl)cc2c1)C1CCS(=O)(=O)CC1 [Compound 48]	> 100	
COc1ccc(CC(=O)NCC(=O)N(C)C2CCS(=O)(=O)CC2)cc1 [Compound 43]	> 100	
Cc1ccc(C2(C(=O)NCC(=O)N(C)C3CCS(=O)(=O)CC3)CC2)cc1 [Compound 34]	> 100	
CN(C(=O)CCNC(=O)/C=C/c1cccc(Cl)c1)C1CCS(=O)(=O)C1 (stereo not shown) [Compound 29]	> 100	
CN(C(=O)CNC(=O)c1cccc2c1OCCO2)C1CCS(=O)(=O)CC1 [Compound 32]	> 100	
CN(C(=O)CNC(=O)/C=C/c1cccc(S(=O)(=O)N(C)C)c1)C1CCS(=O)(=O)C1 (stereo not shown) [Compound 25]	> 100	
CN(C(=O)CNC(=O)c1ccc2ccccc2n1)C1CCS(=O)(=O)CC1 [Compound 39]	> 100	
CN(C(=O)CNC(=O)c1cc2cc(Cl)ccc2[nH]1)C1CCS(=O)(=O)CC1 [Compound 33]	> 100	
CN(C(=O)CNC(=O)Cc1ccc2c(c1)OCO2)C1CCS(=O)(=O)CC1 [Compound 40]	> 100	
COc1cccc(CNC(=O)NCC(=O)N(C)C2CCS(=O)(=O)CC2)c1 [Compound 50]	> 100	

SMILES	IC50 (human KLF5 promoter; [7]) [µM]	other results
CN(C(=O)CNC(=O)/C=C/c1cccc(Cl)c1)C1CCS(=O)(=O)CC1 [Compound 1, (E)-3-(3-chlorophenyl)-N-(2-((1,1-dioxidotetrahydro-2H-thiopyran-4-yl)(methyl)amino)-2-oxoethyl)acrylamide]		maximal effect on DLD-1 viability (DLD-1 cell line): > 90%; IC50 (DLD-1 cell line; Homo sapiens, DLD1 (colon), viability): 0.029 µM; EC50 (DLD-1 cell line; Homo sapiens): 0.022 µM; effect on cell type (HT29 (colon); HT29, submicromolar doses): significant effects at submicromolar doses; IC50 (HT29 (colon); Homo sapiens, HT-29, HT29 (colon)): 0.13 µM; IC50 (SW-620 (colon); Homo sapiens, SW-620 (colon)): 0.43 µM; effect on cell type (SW-620 (colon); SW620, submicromolar doses): significant effects at submicromolar doses; effect on cell type (HCT-116 (colon); HCT116, submicromolar doses): significant effects at submicromolar doses; IC50 (HCT-116 (colon); Homo sapiens, HCT-116 (colon)): 0.56 µM; sensitivity to cytotoxicity [1]: ML264-insensitive; sensitivity to cytotoxicity [2]: ML264-insensitive; sensitivity to cytotoxicity [3]: ML264-insensitive; off-target activity vs. 47 kinases (47 kinases): inactive; inhibition at 10 μM vs. 67 protein targets [4]: < 50%; effect on KLF5 protein levels (KLF5 protein; listed as ML264): significantly reduces KLF5 protein levels; also recorded: lowers KLF5 protein levels; solubility ([5]; PBS, read-out: Solubility in PBS): 18.7 µM (≈ 7.2 µg/mL); solubility ([5]; assay buffer, read-out: Solubility in assay buffer): 35 µM (≈ 13.5 µg/mL); half-life (Stability in PBS): > 48 h; Michael acceptor [6]: Michael acceptor: No
CN(C(=O)CNC(=O)c1ccc2cc[nH]c2c1)C1CCS(=O)(=O)CC1 [Compound 46]	> 100	
C[C@@H](NC(=O)/C=C/c1cccc(Cl)c1)C(=O)NC1CCS(=O)(=O)C1 (stereo partly shown) [Compound 27]	> 100	
O=C(/C=C/c1cccc(Cl)c1)NCC(=O)NC1CCS(=O)(=O)CC1 [Compound 26]	> 100	
CN(C(=O)CNC(=O)COCc1ccccc1)C1CCS(=O)(=O)CC1 [Compound 42]	> 100	
C[C@@H](NC(=O)/C=C/c1cccc(Cl)c1)C(=O)N(C)C1CCS(=O)(=O)CC1 [Compound 24]	> 100	
CN(C(=O)CNC(=O)c1ccnn1-c1ccccc1)C1CCS(=O)(=O)CC1 [Compound 41]	> 100	
CN(C(=O)COC(=O)/C=C/c1cccc([N+](=O)[O-])c1)C1CCS(=O)(=O)C1 (stereo not shown) [CID 5951923]		effect on KLF5 protein levels (KLF5 protein): lesser effects on KLF5 expression than ML264
O=C(/C=C/c1cccc(Cl)c1)NCC(=O)N(C1CC1)C1CCS(=O)(=O)CC1 [Compound 54]		IC50 (human KLF5 promoter; DlD-1 4.9 cell line): 7.8 µM; EC50 (DLD-1 cell line; Homo sapiens): 0.39 µM
CN(C(=O)COC(=O)/C=C/c1cccc([N+](=O)[O-])c1)C1CCS(=O)(=O)C1 (stereo not shown) [Compound 53C, reference compound]	0.27	EC50 (DLD-1 cell line; Homo sapiens): 1.51 µM
C[C@@H](NC(=O)/C=C/c1cccc(Cl)c1)C(=O)NC1CCS(=O)(=O)CC1 [Compound 31]	> 100	
CN(C(=O)CNC(=O)c1coc2ccccc2c1=O)C1CCS(=O)(=O)CC1 [Compound 45]	> 100	
CN(C(=O)CNC(=O)C1CCc2ccccc2O1)C1CCS(=O)(=O)CC1 (stereo not shown) [Compound 44]	> 100	
C[C@@H](NC(=O)/C=C/c1cccc(Cl)c1)C(=O)N(C)C1CCS(=O)(=O)C1 (stereo partly shown) [Compound 30]	> 100	
O=C(/C=C/c1cccc(Cl)c1)NCC(=O)N(C1CC1)C1CCS(=O)(=O)CC1 [Compound 52]		IC50 (human KLF5 promoter; DlD-1 4.9 cell line): > 100 µM
CN(C(=O)CNC(=O)Nc1ccc(Br)cc1Br)C1CCS(=O)(=O)CC1 [Compound 36]	> 100	
